Laboratory results published in the NIST ThermoML archive (doi:10.1016/j.jct.2012.12.001).

Assay: heat capacity at constant pressure per volume; xn = mol fraction of the nth substance listed
Conditions: 101 kPa, Liquid, DSC, x2 = 0.713

CCCCCCCCCCCCCCCCCC [octadecane] + N#Cc1ccccc1
Conditions | heat capacity [J/K/m3]
311.31 K | 1755300
311.34 K | 1755200
311.37 K | 1751900
311.39 K | 1755200
311.42 K | 1754200
311.45 K | 1754700
311.48 K | 1751100
311.51 K | 1751000
311.54 K | 1753000
311.56 K | 1754300
311.59 K | 1755100
311.62 K | 1752800
311.65 K | 1748600
311.68 K | 1753400
311.7 K | 1751800
311.73 K | 1751000
311.76 K | 1752000
311.79 K | 1748500
311.82 K | 1747200
311.85 K | 1749600
311.87 K | 1749800
311.9 K | 1751600
311.93 K | 1750300
311.96 K | 1749700
311.99 K | 1747400
312.01 K | 1746900
312.04 K | 1752800
312.07 K | 1750900
312.1 K | 1745700
312.13 K | 1749200
312.15 K | 1747500
312.18 K | 1746000
312.21 K | 1746700
312.24 K | 1746500
312.27 K | 1747800
312.3 K | 1746300
312.32 K | 1744700
312.35 K | 1746400
312.38 K | 1744700
312.41 K | 1744900
312.44 K | 1743500
312.46 K | 1743700
312.49 K | 1747600
312.52 K | 1745100
312.55 K | 1746800
312.58 K | 1745400
312.6 K | 1744400
312.63 K | 1744300
312.66 K | 1743700
312.69 K | 1745000
312.72 K | 1743800
312.75 K | 1744000
312.77 K | 1743700
312.8 K | 1741400
312.83 K | 1742500
312.86 K | 1743700
312.88 K | 1745000
312.91 K | 1746300
312.94 K | 1744500
312.97 K | 1744100
313 K | 1743500
313.03 K | 1742300
313.05 K | 1742800
313.08 K | 1741900
313.11 K | 1742400
313.14 K | 1742800
313.17 K | 1739000
313.19 K | 1743700
313.22 K | 1740000
313.25 K | 1739100
313.28 K | 1738800
313.31 K | 1739500
313.33 K | 1740400
313.36 K | 1741400
313.39 K | 1740700
313.42 K | 1739700
313.45 K | 1740900
313.48 K | 1742600
313.5 K | 1740800
313.53 K | 1739000
313.56 K | 1737700
313.59 K | 1739600
313.62 K | 1740700
313.64 K | 1741100
313.67 K | 1740500
313.7 K | 1740400
313.73 K | 1741200
313.76 K | 1739900
313.79 K | 1739100
313.81 K | 1739300
313.84 K | 1739200
313.87 K | 1738900
313.9 K | 1738100
313.93 K | 1738700
313.95 K | 1735100
313.98 K | 1738800
314.01 K | 1737700
314.04 K | 1736700
314.07 K | 1735400
314.09 K | 1737000
314.12 K | 1736800
314.15 K | 1737300
314.18 K | 1733500
314.21 K | 1737800
314.24 K | 1735200
314.26 K | 1736900
314.29 K | 1735200
314.32 K | 1736400
314.35 K | 1737400
314.38 K | 1736600
314.4 K | 1738700
314.43 K | 1736600
314.46 K | 1737000
314.49 K | 1735500
314.52 K | 1735300
314.54 K | 1735400
314.57 K | 1735300
314.6 K | 1735500
314.63 K | 1734500
314.66 K | 1737100
314.68 K | 1735100
314.71 K | 1733900
314.74 K | 1734500
314.77 K | 1733900
314.8 K | 1737400
314.82 K | 1736200
314.85 K | 1735600
314.88 K | 1735100
314.91 K | 1734300
314.94 K | 1734100
314.96 K | 1733300
314.99 K | 1735100
315.02 K | 1735000
315.05 K | 1735200
315.08 K | 1732600
315.2 K | 1734500
315.38 K | 1734200
